Test results: ChEMBL document CHEMBL3132769, “Fragment growing to retain or alter the selectivity of anchored kinase hinge-binding fragments” (Medchemcomm, 2014)

Columns and labels:
[1] = molecular target: Casein kinase I isoform delta (Homo sapiens) (UniProt P48730); test: Inhibition of human CK1D catalytic domain expressed in Escherichia coli cell assessed as substrate phosphorylation using fluorescence-labelled peptides as substrate at 95 uM after 90 mins by microfluidic peptide phosphorylation assay
Chain of Casein kinase I isoform delta (Homo sapiens) (P48730 whole entry, looked up, the tested form may be a part, canonical isoform): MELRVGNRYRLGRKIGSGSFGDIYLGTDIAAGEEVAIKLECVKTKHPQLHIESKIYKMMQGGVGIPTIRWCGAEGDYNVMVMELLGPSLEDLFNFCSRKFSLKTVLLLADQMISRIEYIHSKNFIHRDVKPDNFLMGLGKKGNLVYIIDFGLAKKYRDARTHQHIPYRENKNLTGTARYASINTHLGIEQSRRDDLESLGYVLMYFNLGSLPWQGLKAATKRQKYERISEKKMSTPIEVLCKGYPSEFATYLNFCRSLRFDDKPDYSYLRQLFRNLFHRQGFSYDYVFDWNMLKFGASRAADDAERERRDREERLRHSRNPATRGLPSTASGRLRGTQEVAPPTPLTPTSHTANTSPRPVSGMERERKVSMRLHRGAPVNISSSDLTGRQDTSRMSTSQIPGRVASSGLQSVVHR

[2] = molecular target: T1, Serine/threonine-protein kinase D3 (Homo sapiens) (UniProt O94806); test: Inhibition of human full length PKD3 expressed in baculovirus assessed as substrate phosphorylation using fluorescence-labelled peptides as substrate at 9 uM after 90 mins by microfluidic peptide phosphorylation assay
T1 sequence (whole entry): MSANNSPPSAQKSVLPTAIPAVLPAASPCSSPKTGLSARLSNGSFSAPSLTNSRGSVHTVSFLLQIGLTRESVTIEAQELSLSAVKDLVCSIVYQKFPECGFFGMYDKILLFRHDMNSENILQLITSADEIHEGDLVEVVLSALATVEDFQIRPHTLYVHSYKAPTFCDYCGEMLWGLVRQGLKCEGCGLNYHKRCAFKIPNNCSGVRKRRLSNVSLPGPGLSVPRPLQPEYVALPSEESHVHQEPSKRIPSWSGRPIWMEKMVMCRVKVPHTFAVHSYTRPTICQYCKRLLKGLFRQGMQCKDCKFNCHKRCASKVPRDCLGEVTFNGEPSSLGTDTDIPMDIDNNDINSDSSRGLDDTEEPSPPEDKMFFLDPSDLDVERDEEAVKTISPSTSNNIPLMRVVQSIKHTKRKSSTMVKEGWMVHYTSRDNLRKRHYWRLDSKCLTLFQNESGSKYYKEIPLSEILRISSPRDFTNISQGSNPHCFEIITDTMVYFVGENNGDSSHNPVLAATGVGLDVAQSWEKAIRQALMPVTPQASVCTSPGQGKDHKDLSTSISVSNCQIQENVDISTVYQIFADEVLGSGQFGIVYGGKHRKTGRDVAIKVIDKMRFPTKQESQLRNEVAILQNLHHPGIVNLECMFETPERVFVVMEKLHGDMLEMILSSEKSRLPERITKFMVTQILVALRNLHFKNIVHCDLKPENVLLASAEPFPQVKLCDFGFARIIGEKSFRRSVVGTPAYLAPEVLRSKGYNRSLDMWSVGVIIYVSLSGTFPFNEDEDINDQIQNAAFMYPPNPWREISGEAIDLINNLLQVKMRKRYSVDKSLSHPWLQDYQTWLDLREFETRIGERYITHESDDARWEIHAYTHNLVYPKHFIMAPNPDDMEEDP

[3] = molecular target: Dual specificity tyrosine-phosphorylation-regulated kinase 1A (Rattus norvegicus) (UniProt Q63470); test: Inhibition of rat full length DYRK1a expressed in Escherichia coli cell assessed as substrate phosphorylation using fluorescence-labelled peptides as substrate at 9 uM after 90 mins by microfluidic peptide phosphorylation assay
[4] = test system: Tyrosine-protein kinase ABL1 (Homo sapiens), P00519 [Q252H]; test: Inhibition of human truncated ABL Q252H mutant expressed in baculovirus assessed as substrate phosphorylation using fluorescence-labelled peptides as substrate at 1000 uM after 90 mins by microfluidic peptide phosphorylation assay
[5] = molecular target: T2, Calcium/calmodulin-dependent protein kinase type IV (Homo sapiens) (UniProt Q16566); test: Inhibition of human full length CAMK4 expressed in baculovirus assessed as substrate phosphorylation using fluorescence-labelled peptides as substrate at 2 uM after 90 mins by microfluidic peptide phosphorylation assay
T2 sequence (whole entry): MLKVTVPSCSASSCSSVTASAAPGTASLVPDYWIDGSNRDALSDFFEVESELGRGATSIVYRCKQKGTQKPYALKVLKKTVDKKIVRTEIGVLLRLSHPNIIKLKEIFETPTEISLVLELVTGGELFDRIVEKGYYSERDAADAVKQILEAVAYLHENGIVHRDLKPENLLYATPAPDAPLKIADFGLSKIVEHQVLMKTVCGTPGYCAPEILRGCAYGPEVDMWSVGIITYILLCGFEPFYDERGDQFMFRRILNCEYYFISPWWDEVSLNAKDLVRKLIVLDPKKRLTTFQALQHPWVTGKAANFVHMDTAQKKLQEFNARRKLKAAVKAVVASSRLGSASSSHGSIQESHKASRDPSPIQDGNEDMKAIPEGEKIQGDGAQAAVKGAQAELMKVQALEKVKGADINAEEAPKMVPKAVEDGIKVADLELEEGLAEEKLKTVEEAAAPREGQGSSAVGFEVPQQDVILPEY

[6] = molecular target: Platelet-derived growth factor receptor alpha (Homo sapiens) (UniProt P16234); test: Inhibition of human PDGFR alpha catalytic domain expressed in baculovirus assessed as substrate phosphorylation using fluorescence-labelled peptides as substrate at 2 uM after 90 mins by microfluidic peptide phosphorylation assay
Chain of Platelet-derived growth factor receptor alpha (Homo sapiens) (P16234 whole entry, the tested form may be a part): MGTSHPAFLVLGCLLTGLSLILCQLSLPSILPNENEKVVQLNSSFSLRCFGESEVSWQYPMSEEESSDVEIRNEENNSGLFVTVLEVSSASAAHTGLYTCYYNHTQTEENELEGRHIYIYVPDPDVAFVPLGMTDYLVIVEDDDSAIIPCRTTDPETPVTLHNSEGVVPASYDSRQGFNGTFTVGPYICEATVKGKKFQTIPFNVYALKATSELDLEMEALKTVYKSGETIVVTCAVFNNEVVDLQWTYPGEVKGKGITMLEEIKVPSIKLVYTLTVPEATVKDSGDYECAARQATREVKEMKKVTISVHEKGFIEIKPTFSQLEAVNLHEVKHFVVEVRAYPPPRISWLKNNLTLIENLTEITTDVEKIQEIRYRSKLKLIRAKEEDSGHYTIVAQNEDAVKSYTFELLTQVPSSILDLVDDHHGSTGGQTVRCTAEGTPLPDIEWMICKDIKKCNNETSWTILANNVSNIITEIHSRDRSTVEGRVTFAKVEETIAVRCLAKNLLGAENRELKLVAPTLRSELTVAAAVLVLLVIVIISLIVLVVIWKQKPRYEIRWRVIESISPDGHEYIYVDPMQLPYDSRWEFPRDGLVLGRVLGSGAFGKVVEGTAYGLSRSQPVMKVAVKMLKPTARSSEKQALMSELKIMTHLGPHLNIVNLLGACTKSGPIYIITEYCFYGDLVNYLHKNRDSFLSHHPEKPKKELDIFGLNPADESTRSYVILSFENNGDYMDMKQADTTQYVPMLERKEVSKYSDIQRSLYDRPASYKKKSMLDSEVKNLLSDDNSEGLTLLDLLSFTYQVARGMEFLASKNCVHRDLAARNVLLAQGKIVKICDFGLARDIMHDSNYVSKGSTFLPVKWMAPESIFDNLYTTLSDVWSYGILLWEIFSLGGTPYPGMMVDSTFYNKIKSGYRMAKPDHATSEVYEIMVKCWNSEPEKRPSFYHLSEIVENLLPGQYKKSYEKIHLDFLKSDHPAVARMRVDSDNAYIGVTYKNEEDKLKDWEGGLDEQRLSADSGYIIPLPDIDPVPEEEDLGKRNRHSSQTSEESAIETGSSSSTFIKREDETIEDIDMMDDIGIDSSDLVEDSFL

[7] = molecular target: Mitogen-activated protein kinase 3 (Homo sapiens) (UniProt P27361); test: Inhibition of human full length ERK1 expressed in Escherichia coli cell assessed as substrate phosphorylation using fluorescence-labelled peptides as substrate at 2 uM after 90 mins by microfluidic peptide phosphorylation assay
Chain of Mitogen-activated protein kinase 3 (Homo sapiens) (P27361 whole entry, the tested form may be a part): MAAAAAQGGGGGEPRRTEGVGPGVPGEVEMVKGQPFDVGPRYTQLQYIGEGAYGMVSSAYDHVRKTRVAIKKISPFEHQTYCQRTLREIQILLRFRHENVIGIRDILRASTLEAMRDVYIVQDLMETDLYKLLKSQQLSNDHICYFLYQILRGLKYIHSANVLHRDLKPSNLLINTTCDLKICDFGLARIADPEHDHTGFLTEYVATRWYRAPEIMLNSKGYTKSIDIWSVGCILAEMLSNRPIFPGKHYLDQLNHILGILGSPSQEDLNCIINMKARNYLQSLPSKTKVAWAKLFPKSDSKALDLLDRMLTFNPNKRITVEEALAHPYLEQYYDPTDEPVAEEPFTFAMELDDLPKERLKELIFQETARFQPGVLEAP

[8] = molecular target: T3, Serine/threonine-protein kinase BRSK2 (Homo sapiens) (UniProt Q8IWQ3); test: Inhibition of human truncated BRSK2 expressed in baculovirus assessed as substrate phosphorylation using fluorescence-labelled peptides as substrate at 8 uM after 90 mins by microfluidic peptide phosphorylation assay
T3 sequence (whole entry): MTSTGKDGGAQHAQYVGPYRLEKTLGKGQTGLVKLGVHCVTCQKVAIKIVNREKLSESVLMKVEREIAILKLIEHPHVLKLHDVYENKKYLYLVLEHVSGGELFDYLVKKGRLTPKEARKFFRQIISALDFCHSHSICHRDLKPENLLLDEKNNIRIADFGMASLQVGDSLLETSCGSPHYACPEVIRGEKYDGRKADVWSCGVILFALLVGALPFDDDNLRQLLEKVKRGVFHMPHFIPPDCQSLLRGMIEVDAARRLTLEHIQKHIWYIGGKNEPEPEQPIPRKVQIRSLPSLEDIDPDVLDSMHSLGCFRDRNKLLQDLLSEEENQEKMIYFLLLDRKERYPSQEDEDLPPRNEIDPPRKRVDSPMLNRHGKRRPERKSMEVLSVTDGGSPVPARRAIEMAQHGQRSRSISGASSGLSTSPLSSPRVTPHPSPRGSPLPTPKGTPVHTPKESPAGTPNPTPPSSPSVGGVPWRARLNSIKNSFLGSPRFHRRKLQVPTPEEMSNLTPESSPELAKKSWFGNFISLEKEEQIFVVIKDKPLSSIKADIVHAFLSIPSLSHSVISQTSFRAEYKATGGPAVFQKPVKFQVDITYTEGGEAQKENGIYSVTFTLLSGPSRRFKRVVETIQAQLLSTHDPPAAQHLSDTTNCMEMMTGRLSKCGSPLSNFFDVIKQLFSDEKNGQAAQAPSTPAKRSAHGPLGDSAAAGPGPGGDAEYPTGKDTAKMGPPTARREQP

[9] = molecular target: Serine/threonine-protein kinase MARK1 (Homo sapiens) (UniProt Q9P0L2); conditions: 0.1 uM
Chain of Serine/threonine-protein kinase MARK1 (Homo sapiens) (Q9P0L2 whole entry, looked up): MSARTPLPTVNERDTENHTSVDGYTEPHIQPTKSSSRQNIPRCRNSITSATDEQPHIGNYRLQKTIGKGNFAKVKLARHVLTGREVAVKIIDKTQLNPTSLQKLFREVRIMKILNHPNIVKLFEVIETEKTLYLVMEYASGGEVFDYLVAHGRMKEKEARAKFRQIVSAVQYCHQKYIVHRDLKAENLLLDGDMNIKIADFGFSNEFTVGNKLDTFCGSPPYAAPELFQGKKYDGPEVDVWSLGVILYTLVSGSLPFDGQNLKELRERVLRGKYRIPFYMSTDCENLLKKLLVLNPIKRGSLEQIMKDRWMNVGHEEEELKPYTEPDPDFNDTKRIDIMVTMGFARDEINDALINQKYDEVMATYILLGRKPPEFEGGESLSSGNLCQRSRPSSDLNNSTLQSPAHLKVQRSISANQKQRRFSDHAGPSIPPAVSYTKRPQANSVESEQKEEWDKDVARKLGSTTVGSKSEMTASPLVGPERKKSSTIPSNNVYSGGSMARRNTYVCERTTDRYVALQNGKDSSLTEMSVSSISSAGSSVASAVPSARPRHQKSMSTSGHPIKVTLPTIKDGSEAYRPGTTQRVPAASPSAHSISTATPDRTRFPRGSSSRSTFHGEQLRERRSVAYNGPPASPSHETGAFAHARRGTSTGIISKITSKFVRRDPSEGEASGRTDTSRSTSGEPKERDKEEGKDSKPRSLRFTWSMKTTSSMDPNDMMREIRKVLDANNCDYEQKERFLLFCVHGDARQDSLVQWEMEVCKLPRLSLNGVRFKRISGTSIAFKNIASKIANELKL
Description: Inhibition of human full length MARK1 expressed in baculovirus assessed as substrate phosphorylation using fluorescence-labelled peptides as substrate at 0.1 uM after 90 mins by microfluidic peptide phosphorylation assay

NCCc1ccc(-c2ncnc3[nH]cnc23)cc1
inhibition [1]: 77.5%

NCC1CN(c2ncnc3[nH]c4cnccc4c23)CCO1 (centres undefined)
inhibition [2]: 80%
inhibition [3]: 7.5%

c1cnc2[nH]ccc2c1
inhibition [4]: 29%

NC1CCN(c2ncnc3[nH]ccc23)CC1
inhibition [5]: 12%
inhibition [6]: 5%
inhibition [7]: 1%

NCC1CCN(c2ncnc3[nH]ccc23)CC1
inhibition [8]: 56.5%

C[C@H](CN(C)C)Oc1nc(Nc2cc3cccc(Cl)c3cn2)cnc1C#N
inhibition [9]: 0%
